In PMC7966211, “Cooperativity of membrane-protein and protein–protein interactions control membrane remodeling by epsin 1 and affects clathrin-mediated endocytosis” (Cellular and Molecular Life Sciences: CMLS, 2020):
Where a chain is given by its changes, count along the chain named. Names and notes keep the numbering of the source.

Tests used:
[1] = biological target: T1, ENTH domain of epsin1 (ENTH^WT; Rat Epsin1 WT ENTH 1–164) (Rattus norvegicus, UniProt O88339); assay: reflectometric interference spectroscopy (RIfS), Langmuir adsorption isotherm; type: binding; details: PI(4,5)P2 in supported POPC/PI(4,5)P2 (95:5) bilayer without PS; PBS pH 7.4; apparent membrane dissociation constant in protein concentration
T1 construct: gene Epn1; ENTH domain residues 1-164, pGEX-6P-2, expressed in E. coli BL21(DE3), GST tag cleaved with PreScission protease
T1 sequence (O88339 1-164): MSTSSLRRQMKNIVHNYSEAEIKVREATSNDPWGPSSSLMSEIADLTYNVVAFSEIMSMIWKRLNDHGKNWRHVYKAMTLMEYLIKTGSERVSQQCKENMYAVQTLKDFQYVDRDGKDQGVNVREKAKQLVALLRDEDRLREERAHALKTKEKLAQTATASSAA
Text: (§1) reflectometric interference spectroscopy (RIfS), Langmuir adsorption isotherm on ENTH domain of epsin1 (ENTH^WT; Rat Epsin1 WT ENTH 1–164)

[2] = biological target: T2, ENTH domain of epsin1 (ENTH^WT; Rat Epsin1 WT ENTH 1–164) (Rattus norvegicus, UniProt O88339, R114A); assay: as above; type: binding; details: PI(4,5)P2 in supported POPC/PI(4,5)P2 (95:5) bilayer without PS; PBS pH 7.4; apparent membrane dissociation constant in protein concentration
T2 construct: gene Epn1; ENTH domain residues 1-164, pGEX-6P-2, expressed in E. coli BL21(DE3), GST tag cleaved with PreScission protease
T2 sequence (O88339 1-164 R114A): T1 sequence (O88339 1-164) with R114A
Text: as §1

[3] = biological target: T1, ENTH domain of epsin1 (ENTH^WT; Rat Epsin1 WT ENTH 1–164); assay: LUV co-sedimentation with SDS-PAGE, electron microscopy, DLS: partial restoration of oligomerization and membrane remodeling; type: biochemical; details: 4 times molar excess of L-SOP to ENTH; PS-free PC/PE/PI(4,5)P2 (65:30:5) LUVs; effect on oligomerization, binding not measured directly
[4] = biological target: the molecule itself; assay: SDS-resistant oligomers on SDS-PAGE after liposome co-sedimentation; 20 µM protein with 2 mg/ml LUVs that contain PS (Folch + PI(4,5)P2, or PC/PE/PS/PI(4,5)P2 with 5-20% PS), 3 h 30 °C, HEPES buffer, 205,000 x g, pellet and supernatant on SDS-PAGE; self-association on membranes
[5] = biological target: the molecule itself; assay: FRET or BRET; Atto488-labeled (donor) and Atto532-labeled (acceptor) ENTH domains, total 5 and 15 µM, in 2 mg/ml LUV suspension; LUVs PC/PE/PS/PI(4,5)P2 (45:30:20:5) compared with PS-free PC/PE/PI(4,5)P2 (65:30:5), on which the wild type gave reduced FRET; excitation 493 nm

## PI(4,5)P2
[1]
  Kd: 1 ± 0.2 µM
[2]
  Kd: 2.9 ± 0.8 µM

## N[C@@H](COP(=O)(O)O)C(=O)O [L-SOP]
[3]
  LUV co-sedimentation with SDS-PAGE, electron microscopy, DLS: partial restoratio: presence of the PS headgroup was sufficient to partially restore oligomerization and membrane remodeling

B1: Rat Epsin1 WT ENTH 1-164 (domain or fragment, UniProt O88339 1-164, looked up)
chain: T1 sequence (O88339 1-164)
notes: Epsin 1, rat, ENTH (epsin N-terminal homology) domain, residues 1-164; Expressed from pGEX-6P-2; also called ENTH domain; ENTH^WT; source: E. coli BL21(DE3), purified (GSTrap, GST cleaved with PreScission Protease, anion exchange, SEC)
[4]
  binding result: binds

B2: ENTH WT (C96A A155C), fluorescently labeled (domain or fragment, rat, UniProt O88339 1-164, looked up)
chain: T1 sequence (O88339 1-164) with C96A, A155C
modifications: Atto488 maleimide (donor population) or Atto532 maleimide (acceptor population) by cysteine modification
notes: Epsin 1, rat, ENTH domain, residues 1-164, with C96A and A155C for labeling; Two populations of the same construct, one with Atto488 and one with Atto532, were mixed for FRET; also called ENTH-Atto-488; ENTH-Atto-532; source: E. coli BL21(DE3), purified (GSTrap, GST cleaved with PreScission Protease, anion exchange, SEC), then labeled
[5]
  binding result: binds
